In brackets after ≈: the same amount, converted by molar mass. Several values for one entry are separate records, joined by “and”; a condition that tells them apart may be missing. Equal values may be shown once. Read-outs that look alike come from different tables or passages of the source.
Legend:
NISO = NISO (Papaver somniferum, UniProt P0DYP9); experiment: ANS displacement assay; details: for IC50: IC50, NISO; for IC50 / Log10IC50: 10 µM protein and 10 µM ANS, CBS pH 5.5; for Log10IC50 / Hill Slope: NISO; for Hill Slope: ANS displacement dose-response fit
NISO, sequence (P0DYP9 entry or part of it): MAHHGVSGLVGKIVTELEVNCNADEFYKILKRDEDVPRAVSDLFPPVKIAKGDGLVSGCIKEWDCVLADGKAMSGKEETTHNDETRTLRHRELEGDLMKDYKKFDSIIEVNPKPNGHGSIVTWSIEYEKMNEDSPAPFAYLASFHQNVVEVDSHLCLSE
Description: (§4) 8-anilino-1-naphthalenesulfonic acid (ANS) fluorescence binding curves and the binding-induced reduction in ANS fluorescence resulting from competition with tested ligands across a range of concentration facilitated the measurement of IC50 and an estimate of Kd values using the binding models and procedures described previously[70]. […] ANS was dissolved in dimethylsufoxide at a concentration of 20 mM, stored at −20 °C until dilution and protected from exposure to light. […] 40 µl of the ANS solution and 40 µl of each MLP/PR10 protein solution were combined to 80 µl final reaction volumes, which were incubated at 21 °C for 10 min to allow equilibration of binding. Triplicate 18-µl aliquots were withdrawn from each 80 µl reaction, transferred to optically clear PCR tubes (Diamed, Canada) and ANS fluorescence was measured following an additional 3-min incubation at 30 °C using a Qiagen Rotor-gene Q 6-plex with excitation and emission filters of 365 ± 20 nm and 460 ± 20 nm, respectively. An identical reaction series whereby protein was omitted from the mixtures was measured under identical conditions and trace fluorescence was subtracted from each MLP/PR10 protein-containing sample. Each data set was scaled so that the maximum observed fluorescence corresponded to 100% and individual data points were plotted, and a rectangular hyperbolic ligand binding function was fit, using least-squares analysis (Prism 5 software, Graphpad, USA). Experiments were repeated at least twice with independently prepared protein.
(§5) Displacement of ANS is associated with reduced fluorescence. […] Briefly, 40 µl of 20 µM ANS and individual MLP/ PR10 protein solutions were combined in CBS buffer, pH 5.5, incubated at 21 °C for 5 min, mixed with 40 µl of separate 0 to 6 mM BIA solutions in CBS buffer, pH 5.5, and the 80 µl reactions were subsequently incubated for 10 min at 21 °C. Fluorescence was measured as described above, including subtraction of any fluorescence in a blank series whereby protein was omitted. […] Each experiment was repeated at least twice with independently prepared MLP/PR10 proteins and BIA ligand.

PR10-4 = experiment: ANS displacement assay; type: binding, Papaver somniferum; details: for IC50 / Log10IC50: 10 µM protein and 10 µM ANS, CBS pH 5.5; for Kd: from average IC50 and PR10-ANS Kd, competitive inhibition assumed, read-out: Estimated Kd
Text: (§1) Eluates were store separately on ice.
(§2) Displacement of ANS is associated with reduced fluorescence.

MLP2 = experiment: ANS displacement assay; type: binding, Papaver somniferum; details: for IC50 / Log10IC50: 10 µM protein and 10 µM ANS, CBS pH 5.5; for Kd: from average IC50 and PR10-ANS Kd, competitive inhibition assumed, read-out: Estimated Kd
Text: as §1, §2

PR10-12 = experiment: ANS displacement assay; type: binding, Papaver somniferum; details: for IC50 / Log10IC50: 10 µM protein and 10 µM ANS, CBS pH 5.5; for Kd: from average IC50 and PR10-ANS Kd, competitive inhibition assumed, read-out: Estimated Kd
Text: as §1, §2

MLP15 [1] = biological target: T1, MLP15 (Papaver somniferum, UniProt P19825); experiment: ANS displacement assay; details: for IC50: IC50, MLP15; for IC50 / Log10IC50: 10 µM protein and 10 µM ANS, CBS pH 5.5; for Log10IC50 / Hill Slope: MLP15; for Hill Slope: ANS displacement dose-response fit
T1 sequence (P19825 1-159): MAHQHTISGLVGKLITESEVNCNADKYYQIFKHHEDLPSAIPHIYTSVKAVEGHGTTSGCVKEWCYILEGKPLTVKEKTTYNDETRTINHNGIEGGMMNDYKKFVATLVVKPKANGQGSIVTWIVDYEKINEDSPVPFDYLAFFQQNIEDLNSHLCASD
Description: as §4, §5

MLP15 [2] = biological target: T1, MLP15; experiment: Isothermal titration calorimetry; type: binding; parameters: made in house; host or cells: E. coli ArcticExpress (DE3); details: ITC thermogram, injections into buffer and MLP15
Description: ITC experiments were conducted using a Microcal VP instrument (Malvern Pananalytical, Malvern, UK). […] Dialysis was carried out in boiled Spectra/Por 1 6–8 kDa MWCO 0.32 ml/cm (Spectrum Labs, USA) tubing thoroughly washed with either buffer before use. The second 1000-fold volume of dialysis buffer was filtered and degassed using a reusable bottle-top filtration apparatus (Nalgene, USA) with disposable […] cellulose filters (VWR, Canada) prior to storage at 4 °C. Ligands were dissolved in the filtered dialysis buffer at 21 °C for approximately one hour, and any insoluble material was removed by repeated centrifugation at 21,000 × g for 10 min. […] Prior to ITC, which was initiated immediately following dialysis, the protein solutions were centrifuged at 17,000 × g and 4 °C for 30 min. Any precipitate was separated from the remaining soluble protein fraction which was quantified by absorption at A280nm and diluted with filtered dialysis buffer immediately before use.
(§3) Thermograms were recorded at 25 °C, with a reference power of 10 (dpu/sec) and monitoring of 30 injections of 9 µl BIA ligand solutions into a sample cell containing 1.4 ml of an MLP/PR10 protein solution, with 300 seconds between injections. […] To ensure that we report only the heat of reaction for each interaction, independent titrations of ligand into buffer, and buffer into protein solutions, were used to calculate and then subtract heats of dilution. After subtraction, binding isotherms were analyzed in MicroCal Origin 7 (MicroCal, USA) by fitting a single-site binding model using non-linear least squares regression analysis repeated until convergence. […] Each ITC experiment was repeated 2 to 4 times.

[3] = Ligand solubility threshold in ITC buffer; type: physicochemical; details: filtered dialysis buffer (CBS, 21 °C, aqueous buffer, thermodynamic from solid); pH 5.5, ITC buffer
Description: ITC experiments were conducted using a Microcal VP instrument (Malvern Pananalytical, Malvern, UK). Recombinant MLP/PR10 protein preparation involving production in Escherichia coli followed by cobalt-affinity chromatography was optimized to yield relatively high purity in a single step as determined by SDS-PAGE and colloidal Coomassie blue silver staining. The less than 48 h decrease in atmospheric oxygen exposure generated high-quality proteins with reduced precipitate. […] Eluates were twice dialysed to equilibrium (i.e., 10–12 h at 4 °C) against a 1000-fold (2–4 L) volume of PBS, pH 7.4 (25 mM sodium phosphate, 50 mM NaCl) or CBS, pH 5.5, resulting in a theoretical million-fold dilution of undesired small molecules (e.g., <0.2 µM imidazole). […] Any precipitate was separated from the remaining soluble protein fraction which was quantified by absorption at A280nm and diluted with filtered dialysis buffer immediately before use.
Thermograms were recorded at 25 °C, with a reference power of 10 (dpu/sec) and monitoring of 30 injections of 9 µl BIA ligand solutions into a sample cell containing 1.4 ml of an MLP/PR10 protein solution, with 300 seconds between injections. […] After subtraction, binding isotherms were analyzed in MicroCal Origin 7 (MicroCal, USA) by fitting a single-site binding model using non-linear least squares regression analysis repeated until convergence. […]

THS2 = THS2 (Papaver somniferum, UniProt A0A2U9GGW3); experiment: ANS displacement assay; details: for IC50: IC50, THS2; for IC50 / Log10IC50: 10 µM protein and 10 µM ANS, CBS pH 5.5; for Log10IC50 / Hill Slope: THS2; for Hill Slope: ANS displacement dose-response fit
THS2, sequence (A0A2U9GGW3 whole entry): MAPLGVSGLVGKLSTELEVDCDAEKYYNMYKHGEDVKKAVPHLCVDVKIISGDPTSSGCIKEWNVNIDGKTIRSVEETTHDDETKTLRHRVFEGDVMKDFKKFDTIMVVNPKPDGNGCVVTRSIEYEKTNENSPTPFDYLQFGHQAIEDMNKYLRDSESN
Description: as §4, §5

PR10-10 [4] = biological target: T2, PR10-10 (Papaver somniferum, UniProt A0A9Y2YA81); experiment: Isothermal titration calorimetry; type: binding; details: for Kd: ITC
T2 sequence (A0A9Y2YA81 1-158): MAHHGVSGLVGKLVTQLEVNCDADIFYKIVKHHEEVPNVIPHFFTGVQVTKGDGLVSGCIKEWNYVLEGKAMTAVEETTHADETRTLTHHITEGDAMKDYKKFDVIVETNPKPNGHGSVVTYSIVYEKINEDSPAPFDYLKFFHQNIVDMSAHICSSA
Description: ITC experiments were conducted using a Microcal VP instrument (Malvern Pananalytical, Malvern, UK). […] Eluates were twice dialysed to equilibrium (i.e., 10–12 h at 4 °C) against a 1000-fold (2–4 L) volume of PBS, pH 7.4 (25 mM sodium phosphate, 50 mM NaCl) or CBS, pH 5.5, resulting in a theoretical million-fold dilution of undesired small molecules (e.g., <0.2 µM imidazole). Dialysis was carried out in boiled Spectra/Por 1 6–8 kDa MWCO 0.32 ml/cm (Spectrum Labs, USA) tubing thoroughly washed with either buffer before use. The second 1000-fold volume of dialysis buffer was filtered and degassed using a reusable bottle-top filtration apparatus (Nalgene, USA) with disposable […] cellulose filters (VWR, Canada) prior to storage at 4 °C. Ligands were dissolved in the filtered dialysis buffer at 21 °C for approximately one hour, and any insoluble material was removed by repeated centrifugation at 21,000 × g for 10 min. […] Prior to ITC, which was initiated immediately following dialysis, the protein solutions were centrifuged at 17,000 × g and 4 °C for 30 min. Any precipitate was separated from the remaining soluble protein fraction which was quantified by absorption at A280nm and diluted with filtered dialysis buffer immediately before use.
as §3

[5] = Sucrose density-gradient fractionation of Przemko latex with exogenous alkaloid; parameters: species or system Papaver somniferum; details: exogenous alkaloid (420-460 mM) added to 80 µL Przemko latex, 14-66% sucrose gradient
Description: Sucrose solutions (66%, 58%, 46%, 38%, 30%, 24 and 14% [w/v]) were prepared in 50 mM HEPES, pH 7.0, containing 5 mM EDTA. Continuous sucrose density gradients were prepared by layering the solutions (3 mL of 66, 58 and 46%, 6 mL of 38%, and 7 mL of 30, 24 and 14% [w/v] sucrose) in 38-mL thin-wall ultracentrifuge tubes (Beckman Coulter, USA) followed by equilibration at 4 °C for 24 h. Fresh latex (80 µL) was collected from decapitated unripe seed capsules in 1.5-mL microcentrifuge tubes and stored on ice for immediate loading on the sucrose gradients. […] Samples were incubated on ice for 30 min then diluted in 2 mL of latex suspension buffer (500 mM mannitol, 50 mM HEPES, pH 7.0, 5 mM EDTA, 1 mM PMSF) and layered onto sucrose density gradients, which were then centrifuged in an AH-629 rotor (Sorvall, USA) for 3 h at 100,000 × g at 4 °C. The bottom of the ultracentrifuge tube was punctured by a flame-heated 21 G needle and a total of 22 fractions (~1.7 mL) were collected manually. The refractive index of each fraction was measured by a digital refractometer (Reichert, USA) and converted to density. Protein concentration was determined by Bradford assay (BioRad, USA) and samples were stored at −80 °C until use.

PR10-10 [6] = biological target: T2, PR10-10; experiment: ANS displacement assay; type: binding; details: ANS displacement dose-response fit
Text: as §1, §2

[7] = CBS pH 5.5, printed in brackets beside *, read-out: Kd (estimate, low enthalpy system)

SMILES	Kd (NISO)	IC50 (NISO)	Log10IC50 (NISO)	Hill Slope (NISO)	IC50 (PR10-4)	Log10IC50 (PR10-4)	Kd (PR10-4)	IC50 (MLP2)	Log10IC50 (MLP2)	Kd (MLP2)	IC50 (PR10-12)	Log10IC50 (PR10-12)	Kd (PR10-12)	Kd (MLP15 [1])	IC50 (MLP15 [1])	Log10IC50 (MLP15 [1])	Hill Slope (MLP15 [1])	solubility [3]	Kd (THS2)	IC50 (THS2)	further results
COc1ccc2c(c1OC)C(=O)O[C@@H]2[C@H]1c2c(cc3c(c2OC)OCO3)CCN1C [Noscapine, noscapine]	56.7 µM	66 µM and 66.1 µM	1.82 ± 0.07	-5.05 ± 6.55	~126 µM	~ 2.102 ± 0.59	~116 µM	~40.4 µM	~ 1.61 ± 0.07	~29.9 µM	~4.18 µM	~ 0.62 ± 0.17	~4.07 µM	37.8 µM	43 µM and 42.6 µM	1.63 ± 0.04	-1.18 ± 0.10	1100 µM (≈ 455 µg/mL)	~9.66 µM	14 µM and ~14.3 µM	endothermic positive peaks during the initial injections (MLP15 [2]): > 0.2 µcal/s; exothermic heat-change plateau of the final injections (MLP15 [2]): -0.48 µcal/s; Log10IC50 (THS2): ~ 1.16 ± 0.48; Hill Slope (THS2): ~ -1.13 ± 0.78
COc1ccc(Cc2nccc3cc(OC)c(OC)cc23)cc1OC [Papaverine, papaverine]	82 µM	96 µM and 95.5 µM	1.98 ± 0.05	-1.20 ± 0.05	41.7 µM	1.62 ± 0.05	38.1 µM	61.4 µM	1.79 ± 0.07	45.5 µM	158 µM	2.20 ± 0.09	154 µM	265 µM	299 µM	2.48 ± 0.08	-1.21 ± 0.08	1200 µM (≈ 407 µg/mL)	333 µM	493 µM	heat change of protein-ligand interaction after subtraction of the blank (PR10-10 [4]; ITC thermogram, pH 5.5): -0.2 µcal/s; Kd (PR10-10 [4]; CBS buffer, Fig. 4b prints no unit, read-out: Kd): ~225 µM; Kd (PR10-10 [4]; [7]): 225 µM; formation of dense aggregate bands in gradient [5]: one or more visibly insoluble dense aggregate bands; Hill Slope (PR10-10 [6]): -0.36 ± 0.27; Log10IC50 (THS2): 2.69 ± 0.71; Hill Slope (THS2): -0.88 ± 0.34
COc1cc2c(cc1OC)[C@@H]1Cc3ccc(OC)c(OC)c3CN1CC2 [Tetrahydropalmatine]																					Kd (PR10-10 [4]; [7]): 180 ± 133 µM

Source: paper PMC9646721, “Alkaloid binding to opium poppy major latex proteins triggers structural modification and functional aggregation” (Nature Communications, 2022)
